The record followed here is patent US12679832B2, “Compounds and their uses as CD38 inhibitors” (Nanjing Immunophage Biotech Co., Ltd., priority 2021, dated 2026).

The test concerns the target T1, hCD38 Enzyme (Homo sapiens, UniProt P28907).
T1 construct: purchased Sino Biological Inc 10818-H08H
T1 sequence (P28907 43-300 limits assumed): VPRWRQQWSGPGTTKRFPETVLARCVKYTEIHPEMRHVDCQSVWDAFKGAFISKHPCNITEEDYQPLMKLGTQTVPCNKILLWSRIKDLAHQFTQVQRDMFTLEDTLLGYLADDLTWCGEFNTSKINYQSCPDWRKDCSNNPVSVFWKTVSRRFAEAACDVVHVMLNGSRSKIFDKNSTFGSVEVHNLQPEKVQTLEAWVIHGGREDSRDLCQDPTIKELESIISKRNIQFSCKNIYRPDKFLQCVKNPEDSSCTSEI
Nature of the test: CD38 hydrolase enzymatic assay. Conditions: rhCD38, ε-NAD substrate, 25° C., point reading time 20 mins; read-out: hCD38 Enzyme inhibition IC50. The format is biochemical. The procedure:
Also, a blank sample was prepared with 50 μl of sucrose buffer and no test compounds.
The dynamic reading was performed at 25° C. with excitation light of 300 nm and emission light of 410 nm on the enzyme marker by contacting the above-prepared rhCD38 enzyme working fluid and the above-prepared solutions of the test compounds disclosed herein or the solution of the control. The readings were recorded for a total of 1 hour, and the data were analyzed with the point reading time of 20 mins.
Fluorescence was recorded by a microplate reader. Individual excel files containing fluorescence data were exported and the results were plotted against various drug concentrations and analyzed in GraphPad Prism 7.0 for concentration curve generation.

By IC50 is commonly meant the concentration that inhibits the measured activity by half. For the compound `C[C@H]1CC[C@H](NC(=O)c2cc(OC3COC3)nc(-n3ccnc3)n2)CC1` [Compound 150], the IC50 was found to be 16 nM.
For `CC(C)(O)c1ccc(NC(=O)c2cc(C(F)(F)F)nc(-n3ccnc3)n2)cc1F` [Compound 180] the value was 11 nM; for `COCCOc1cc(F)cc(NC(=O)c2cc(C(F)(F)F)nc(-n3ccnc3)n2)c1` [Compound 182], 9.6 nM.
In the case of `CO[C@H]1CC[C@H](NC(=O)c2cc(-c3ccnc(C(F)(F)F)c3)nc(-n3ccnc3)n2)CC1` [Compound 184] it was 28 nM; in that of `CO[C@H]1CC[C@H](NC(=O)c2cc(-n3ccnc3)cc(-n3ccnc3)n2)CC1` [compound 1, 4,6-di (1H-imidazol-1-yl)-N-((1r,4r)-4-methoxycyclohexyl)picolinamide], 29 nM.
In the case of `CO[C@H]1CC[C@H](NC(=O)c2cc(-n3ccnc3)cc(Cl)n2)CC1` [compound 2, 6-chloro-4-(1H-imidazol-1-yl)-N-((1r,4r)-4-methoxycyclohexyl)picolinamide] it was 2710 nM; in that of `CO[C@H]1CC[C@H](NC(=O)c2cc(-n3ccnc3)cc(=O)[nH]2)CC1` [compound 3, 4-(1H-imidazol-1-yl)-N-((1r,4r)-4-methoxycyclohexyl)-6-oxo-1.6-dihydropyridine-2-carboxamide], more than 10000 nM; in that of `COc1cc(C(=O)N[C@H]2CC[C@H](OC)CC2)nc(-n2ccnc2)c1` [compound 4, 6-(1H-imidazol-1-yl)-4-methoxy-N-((1r,4r)-4-methoxycyclohexyl)picolinamide], 40 nM.
With `CO[C@H]1CC[C@H](NC(=O)c2cc(O)cc(-n3ccnc3)n2)CC1` [compound 5, 4-hydroxy-6-(1H-imidazol-1-yl)-N-((1r,4r)-4-methoxycyclohexyl)picolinamide], the IC50 was determined as 895 nM.
On to `CO[C@H]1CC[C@H](NC(=O)c2cc(-c3cncs3)ccc2NC(C)=O)CC1` [compound 6, 2-acetamido-N-((1r,4r)-4-methoxycyclohexyl)-5-(thiazol-5-yl) benzamide], for which the IC50 is more than 10000 nM.
Regarding `CO[C@H]1CC[C@H](NC(=O)c2cc(-c3cncs3)ccc2N)CC1` [compound 7, 2-amino-N-((1r,4r)-4-methoxycyclohexyl)-5-(thiazol-5-yl) benzamide], the IC50 is more than 10000 nM.
In the case of `CO[C@H]1CC[C@H](NC(=O)c2cccc(-c3cncs3)c2F)CC1` [compound 8, 2-fluoro-N-((1r,4r)-4-methoxycyclohexyl)-3-(thiazol-5-yl)benzamide] it was more than 10000 nM; in that of `CO[C@H]1CC[C@H](NC(=O)c2cc(-n3ccnc3)nnc2N)CC1` [compound 10, 3-amino-6-(1H-imidazol-1-yl)-N-((1r,4r)-4-methoxycyclohexyl)pyridazine-4-carboxamide], 725 nM.
For `CO[C@H]1CC[C@H](NC(=O)c2cccc(-c3cncs3)n2)CC1` [compound 12, N-((1r,4r)-4-methoxycyclohexyl)-6-(thiazol-5-yl)picolinamide] the value was more than 10000 nM; for `CO[C@H]1CC[C@H](NC(=O)c2cccc(-c3ccno3)n2)CC1` [compound 17, 6-(isoxazol-5-yl)-N-((1r,4r)-4-methoxycyclohexyl)picolinamide], more than 10000 nM.
In the case of `CO[C@H]1CC[C@H](NC(=O)c2cccc(-c3nnco3)n2)CC1` [compound 19, N-((1r,4r)-4-methoxycyclohexyl)-6-(1,3,4-oxadiazol-2-yl) picolinamide] it was more than 10000 nM.
With `CO[C@H]1CC[C@H](NC(=O)c2ccc(N)c(-n3ccnc3)n2)CC1` [compound 20, 5-amino-6-(1H-imidazol-1-yl)-N-((1r,4r)-4-methoxycyclohexyl)picolinamide], the IC50 is more than 10000 nM.
In the case of `CO[C@H]1CC[C@H](NC(=O)c2cc(-n3ccnc3)nc(N)n2)CC1` [compound 21, 2-amino-6-(1H-imidazol-1-yl)-N-((1r,4r)-4-methoxycyclohexyl)pyrimidine-4-carboxamide] it was 8 nM.
For `CNc1nc(C(=O)N[C@H]2CC[C@H](OC)CC2)cc(-n2ccnc2)n1` [compound 22, 6-(1H-imidazol-1-yl)-N-((1r,4r)-4-methoxycyclohexyl)-2-(methylamino)pyrimidine-4-carboxamide] the value was 2750 nM; for `CO[C@H]1CC[C@H](NC(=O)c2cc(N(C)C)nc(-n3ccnc3)n2)CC1` [compound 23, 6-(dimethylamino)-2-(1H-imidazol-1-yl)-N-((1r,4r)-4-methoxycyclohexyl)pyrimidine-4-carboxamide], 45 nM.
For `CNc1cc(C(=O)N[C@H]2CC[C@H](OC)CC2)nc(-n2ccnc2)n1` [compound 24, 2-(1H-imidazol-1-yl)-N-((1r,4r)-4-methoxycyclohexyl)-6-(methylamino)pyrimidine-4-carboxamide] the value was 30 nM.
Consider `CO[C@H]1CC[C@H](NC(=O)c2cc(N3CCCCC3)nc(-n3ccnc3)n2)CC1` [compound 26, 2-(1H-imidazol-1-yl)-N-((1r,4r)-4-methoxycyclohexyl)-6-(piperidin-1-yl)pyrimidine-4-carboxamide], for which the IC50 stood at 46 nM.
In the case of `CO[C@H]1CC[C@H](NC(=O)c2nc(-c3cncs3)cnc2N)CC1` [compound 27, 3-amino-N-((1r,4r)-4-methoxycyclohexyl)-6-(thiazol-5-yl)pyrazine-2-carboxamide] it was 842 nM.
In the case of `CO[C@H]1CC[C@H](NC(=O)c2cc(-n3ccnc3)cnn2)CC1` [compound 28, 5-(1H-imidazol-1-yl)-N-((1r,4r)-4-methoxycyclohexyl)pyridazine-3-carboxamide] it was 22500 nM.
For `CO[C@H]1CC[C@H](NC(=O)c2cc(-c3cncs3)cc3cc[nH]c23)CC1` [compound 29, N-((1r,4r)-4-methoxycyclohexyl)-5-(thiazol-5-yl)-1H-indole-7-carboxamide] the value was 25 nM; for `O=C(NC1CCCCC1)c1cncc(-n2ccnc2)n1` [compound 30, N-cyclohexyl-6-(1H-imidazol-1-yl)pyrazine-2-carboxamide], 42 nM.
For the compound `CC(C)NC(=O)c1cncc(-n2ccnc2)n1` [compound 31, 6-(1H-imidazol-1-yl)-N-isopropylpyrazine-2-carboxamide], the IC50 was determined as 394 nM.
For `O=C(NC1CCOCC1)c1cncc(-n2ccnc2)n1` [compound 32, 6-(1H-imidazol-1-yl)-N-(tetrahydro-2H-pyran-4-yl)pyrazine-2-carboxamide] the value was 84 nM.
For `O=C(NC1CCNCC1)c1cncc(-n2ccnc2)n1` [compound 33, 6-(1H-imidazol-1-yl)-N-(piperidin-4-yl)pyrazine-2-carboxamide] the value was 4080 nM.
For `CC(C)(C)NC(=O)c1cncc(-n2ccnc2)n1` [compound 34, N-(tert-butyl)-6-(1H-imidazol-1-yl)pyrazine-2-carboxamide], the IC50 came to 3910 nM.
For `O=C(Nc1ccccc1)c1cncc(-n2ccnc2)n1` [compound 35, 6-(1H-imidazol-1-yl)-N-phenylpyrazine-2-carboxamide] the value was 4 nM.
For `CN1CCC(NC(=O)c2cncc(-n3ccnc3)n2)CC1` [compound 36, 6-(1H-imidazol-1-yl)-N-(1-methylpiperidin-4-yl)pyrazine-2-carboxamide] the value was 9750 nM.
In the case of `O=C(NCC1CCCCC1)c1cncc(-n2ccnc2)n1` [compound 37, N-(cyclohexylmethyl)-6-(1H-imidazol-1-yl)pyrazine-2-carboxamide] it was 348 nM.
`O=C(NCc1ccccc1)c1cncc(-n2ccnc2)n1` [compound 38, N-benzyl-6-(1H-imidazol-1-yl)pyrazine-2-carboxamide]: the IC50 is 456 nM.
For `CC(NC(=O)c1cncc(-n2ccnc2)n1)C1CCCCC1` (centres unmarked) [compound 39, N-(1-cyclohexylethyl)-6-(1H-imidazol-1-yl)pyrazine-2-carboxamide] the value was 225 nM; for `CC(=O)N1CCC(NC(=O)c2cncc(-n3ccnc3)n2)CC1` [compound 40, N-(1-acetylpiperidin-4-yl)-6-(1H-imidazol-1-yl)pyrazine-2-carboxamide], 96 nM; for `CO[C@H]1CC[C@H](NC(=O)c2nc(-n3ccnc3)cnc2N)CC1` [compound 41, 3-amino-6-(1H-imidazol-1-yl)-N-((1r,4r)-4-methoxycyclohexyl) pyrazine-2-carboxamide], 13 nM.
Turning to `Nc1ncc(-n2ccnc2)nc1C(=O)NC1CCCCC1` [compound 42, 3-amino-N-cyclohexyl-6-(1H-imidazol-1-yl)pyrazine-2-carboxamide], the IC50 stood at 11 nM.
In the case of `CO[C@H]1CC[C@H](NC(=O)c2nc(-n3ccnc3)cnc2N(C)C)CC1` [compound 46, 3-(dimethylamino)-6-(1H-imidazol-1-yl)-N-((1r,4r)-4-methoxycyclohexyl) pyrazine-2-carboxamide] it was 536 nM; in that of `CNc1ncc(-n2ccnc2)nc1C(=O)N[C@H]1CC[C@H](OC)CC1` [compound 47, 6-(1H-imidazol-1-yl)-N-((1r,4r)-4-methoxycyclohexyl)-3-(methylamino)pyrazine-2-carboxamide], 38 nM; in that of `O=C(NC1CCCCC1)c1cccc(-n2ccnc2)n1` [compound 49, N-cyclohexyl-6-(1H-imidazol-1-yl)picolinamide], 70 nM.
